# The source made the active and inactive calls. No cut-off for these calls is given here.
# How the values were obtained:
# 3T3-L1 [1] = assay: Cytotoxicity against mouse 3T3L1 cells at 40 uM after 24 hrs by MTT assay; assay type: cell-based; settings: 3t3-l1, 24 h
# 3T3-L1 [2] = assay: Induction of 2-NBDG uptake in differentiated mouse 3T3L1 cells at 20 uM after 1 hr by fluorescence microscopic method; assay type: functional, cell-based
# C2C12 [3] = assay: Cytotoxicity against mouse C2C12 cells at 40 uM after 24 hrs by MTT assay; assay type: cell-based; settings: c2c12, 24 h
# C2C12 [4] = assay: Induction of AMPKalpha phosphorylation at Thr-172 residue in mouse C2C12 cells at 20 uM after 1 hr by Western blot analysis; assay type: cell-based
# Mus musculus = organism: Mus musculus; assay: Activation of AMPK signaling pathway in mouse 3T3L1 cells assessed as induction of GLUT4 translocation at 20 uM after 24 hrs by Western blot analysis; assay type: cell-based
# 3T3-L1 [5] = assay: Induction of 2-NBDG uptake in differentiated mouse 3T3L1 cells after 1 hr by fluorescence microscopic method; assay type: functional, cell-based
# C2C12 [6] = assay: Activation of AMPKalpha in mouse C2C12 cells assessed as upregulation of ACC-phosphorylation at 20 uM after 1 hr by Western blot analysis; assay type: cell-based
# 3T3-L1 [7] = assay: Cytotoxicity against mouse 3T3L1 cells at 10 to 30 uM after 24 hrs by MTT assay; assay type: cell-based; settings: 3t3-l1, 24 h
# C2C12 [8] = assay: Cytotoxicity against mouse C2C12 cells at 10 uM after 24 hrs by MTT assay; assay type: cell-based; settings: c2c12, 24 h
# 3T3-L1 [9] = assay: Induction of 2-NBDG uptake in differentiated mouse 3T3L1 cells at 10 uM after 1 hr by fluorescence microscopic method; assay type: functional, cell-based
# C2C12 [10] = assay: Induction of AMPKalpha phosphorylation at Thr-172 residue in mouse C2C12 cells at 10 uM after 1 hr by Western blot analysis; assay type: cell-based
structure (smiles),measurement,setting,value
C[C@@H]1O[C@@H](OC[C@H]2O[C@@H](O[C@H]3CC[C@]4(C)[C@H]5CC(=O)[C@@H]6[C@@H]([C@@](C)(O)CC(=O)CC(C)(C)O)CC[C@@]6(C)[C@]5(C)CC[C@H]4C3(C)C)[C@H](O[C@@H]3O[C@@H](C)[C@H](O)[C@@H](O)[C@H]3O)[C@@H](O[C@@H]3O[C@@H](C)[C@H](O)[C@@H](O)[C@H]3O)[C@H]2O)[C@H](O)[C@H](O)[C@H]1O,Activity,3T3-L1 [1],Non-Toxic
same,Activity,3T3-L1 [2],Active
same,Activity,C2C12 [3],Non-Toxic
same,Activity,C2C12 [4],inactive
C[C@@H]1O[C@@H](O[C@H]2[C@H](O[C@H]3CC[C@]4(C)[C@H]5CC(=O)[C@@H]6[C@@H]([C@@](C)(O)C/C=C/C(C)(C)O)CC[C@@]6(C)[C@]5(C)CC[C@H]4C3(C)C)O[C@H](CO)[C@H](O)[C@@H]2O[C@@H]2O[C@@H](C)[C@H](O)[C@@H](O)[C@H]2O)[C@H](O)[C@H](O)[C@H]1O,Activity,Mus musculus,Active
same,Activity,3T3-L1 [1],Non-Toxic
same,Activity,C2C12 [3],Non-Toxic
same,Activity,C2C12 [4],Active
same,Activity,3T3-L1 [5],Dose-dependent effect
CC(=O)[C@H]1CC[C@]2(C)[C@@H]1C(=O)C[C@@H]1[C@@]3(C)CC[C@H](O[C@@H]4O[C@H](CO)[C@H](O)[C@H](O[C@@H]5O[C@@H](C)[C@H](O)[C@@H](O)[C@H]5O)[C@H]4O[C@@H]4O[C@@H](C)[C@H](O)[C@@H](O)[C@H]4O)C(C)(C)[C@@H]3CC[C@]12C,Activity,Mus musculus,Active
same,Activity,3T3-L1 [1],Non-Toxic
same,Activity,C2C12 [3],Non-Toxic
same,Activity,C2C12 [6],Active
same,Activity,C2C12 [4],Active
same,Activity,3T3-L1 [5],Dose-dependent effect
CC(=O)[C@H]1CC[C@]2(C)[C@@H]1C(=O)C[C@@H]1[C@@]3(C)CC[C@H](O[C@@H]4O[C@H](CO[C@@H]5O[C@@H](C)[C@H](O)[C@@H](O)[C@H]5O)[C@H](O)[C@H](O[C@@H]5O[C@@H](C)[C@H](O)[C@@H](O)[C@H]5O)[C@H]4O[C@@H]4O[C@@H](C)[C@H](O)[C@@H](O)[C@H]4O)C(C)(C)[C@@H]3CC[C@]12C,Activity,3T3-L1 [1],Non-Toxic
same,Activity,3T3-L1 [2],Active
same,Activity,C2C12 [3],Non-Toxic
same,Activity,C2C12 [4],Active
CC(C)=CC(=O)C[C@](C)(O)[C@H]1CC[C@]2(C)[C@@H]1C(=O)C[C@@H]1[C@@](C)(CCC(=O)O)[C@@H](C(C)(C)O)CC[C@]12C,Activity,Mus musculus,Active
same,Activity,3T3-L1 [1],Non-Toxic
same,Activity,C2C12 [3],Non-Toxic
same,Activity,C2C12 [6],Active
same,Activity,C2C12 [4],Active
same,Activity,3T3-L1 [5],Dose-dependent effect
CC(C)=CCC[C@](C)(O)[C@H]1CC[C@]2(C)[C@@H]1C(=O)C[C@@H]1[C@@]3(C)CC[C@H](O[C@@H]4O[C@H](CO)[C@@H](O)[C@H](O)[C@H]4O[C@@H]4O[C@@H](C)[C@H](O)[C@@H](O)[C@H]4O)C(C)(C)[C@@H]3CC[C@]12C,Activity,3T3-L1 [7],Non-Toxic
same,Activity,3T3-L1 [1],Toxic
same,Activity,C2C12 [3],Toxic
same,Activity,C2C12 [8],Non-Toxic
same,Activity,3T3-L1 [9],Active
same,Activity,C2C12 [10],Active
CC(=O)[C@H]1CC[C@]2(C)[C@@H]1C(=O)C[C@@H]1[C@@](C)(CCC(=O)O)[C@@H](C(C)(C)O)CC[C@]12C,Activity,3T3-L1 [1],Non-Toxic
same,Activity,3T3-L1 [2],Active
same,Activity,C2C12 [3],Non-Toxic
same,Activity,C2C12 [4],Active
CC(C)=CC(=O)/C=C(/C)[C@H]1CC[C@]2(C)[C@@H]1C(=O)C[C@@H]1[C@@]3(C)CC[C@H](O[C@@H]4O[C@H](CO[C@@H]5O[C@@H](C)[C@H](O)[C@@H](O)[C@H]5O)[C@H](O)[C@H](O[C@@H]5O[C@@H](C)[C@H](O)[C@@H](O)[C@H]5O)[C@H]4O[C@@H]4O[C@@H](C)[C@H](O)[C@@H](O)[C@H]4O)C(C)(C)[C@@H]3CC[C@]12C,Activity,3T3-L1 [1],Non-Toxic
same,Activity,3T3-L1 [2],Active
same,Activity,C2C12 [3],Non-Toxic
same,Activity,C2C12 [4],inactive
C[C@@H]1O[C@@H](OC[C@H]2O[C@@H](O[C@H]3CC[C@]4(C)[C@H]5CC(=O)[C@@H]6[C@@H]([C@@](C)(O)C/C=C/C(C)(C)O)CC[C@@]6(C)[C@]5(C)CC[C@H]4C3(C)C)[C@H](O[C@@H]3O[C@@H](C)[C@H](O)[C@@H](O)[C@H]3O)[C@@H](O[C@@H]3O[C@@H](C)[C@H](O)[C@@H](O)[C@H]3O)[C@H]2O)[C@H](O)[C@H](O)[C@H]1O,Activity,3T3-L1 [1],Non-Toxic
same,Activity,3T3-L1 [2],Active
same,Activity,C2C12 [3],Non-Toxic
same,Activity,C2C12 [4],inactive
CC(C)(O)CC(=O)C[C@](C)(O)[C@H]1CC[C@]2(C)[C@@H]1C(=O)C[C@@H]1[C@@](C)(CCC(=O)O)[C@@H](C(C)(C)O)CC[C@]12C,Activity,Mus musculus,Active
same,Activity,3T3-L1 [1],Non-Toxic
same,Activity,C2C12 [3],Non-Toxic
same,Activity,C2C12 [6],Active
same,Activity,C2C12 [4],Active
same,Activity,3T3-L1 [5],Dose-dependent effect

# — ChEMBL document CHEMBL4266035, “Insulin Mimetic Activity of 3,4- Seco and Hexanordammarane Triterpenoids Isolated from Gynostemma longipes” (J Nat Prod, 2018)
